{
  "source": "patent US20040197341A1",
  "about": "“Therapeutic process for p. aeruginosa infections using macrolide antibiotics” (priority 2004, published 2004)",
  "key": {"rhlAB operon": {"system": "rhlAB operon", "assay": "rhlA'-lacZ reporter (pECP60) expression of the rhlAB operon, beta-Gal activity, with growth curves", "type": "cell-based, P. aeruginosa", "details": "2 μg/ml, LB medium, 16 hours", "procedure": "P. aeruginosa strain PAO1, harbouring the fusion gene pECP60 of rhlA′ with the lacZ reporter (Pesci, E. C., Pearson, J. P., Seed, P. C., Iglewski, B. H., J. Bacteriol. 1997, 179, 3127-3132), was grown for 16 hours in LB medium either in the absence or presence of 2 μg/ml azithromycin and the activity of β-galactosidase (β-Gal) (Miller, J. H., “Experiments in Molecular Genetics”, p. 352-355. Cold Spring Harbor Laboratory, Cold Spring Harbor, N.Y.) was measured in both cultures in intervals of 4 hours. The results of 6 experiments (mean±SD) for each culture were plotted against sampling time (FIG. 1c)."}, "3-oxo-C12-HSL": {"system": "3-oxo-C12-HSL", "assay": "Production of 3-oxo-C12-HSL autoinducer, specific bioassay of ethyl acetate extracts of supernatants", "type": "cell-based, P. aeruginosa", "details": "2 μg/ml, LB medium, 12 hours, strain PAO1", "procedure": "(§1) P. aeruginosa strain PAO1 was grown in LB medium for 12 hours either in the absence or presence of 2 μg/ml of azithromycin. The formed 3-oxo-C12—HSL and C4—HSL autoinducers were extracted from the supernatants of both cultures with ethyl acetate and their respective concentrations were measured using specific bioassays (Pearson, J. P., Pesci, E. C., Iglewski, B. H., J. Bacteriol. 1997, 179, 3127-3132; Seed, P. C, Passador, L., Iglewski, B. H., J. Bacteriol. 1995, 177, 654-659). The results are plotted in FIG. 3 a). In the presence of the macrolide the concentrations of 3-oxo-C12-HSL and C4-HSL were reduced by 94 and 72%, respectively."}, "[1]": {"system": "P. aeruginosa strain PAO1", "assay": "Cell growth of P. aeruginosa PAO1 in LB medium (turbidity at 660 nm) and SDS-PAGE of total protein extracts", "type": "cell-based", "procedure": "P. aeruginosa strain PAO1 was grown for a total of 10 hours on Luria-Bertani (LB) medium containing 2, 3, 4 and 5 μg/ml of azithromycin, respectively. The cell growth in the media was measured by optical absorbance measurements (turbidity) at 660 nm in intervals of 2 h."}, "[2]": {"system": "P. aeruginosa strain PAO1", "assay": "Qualitative rhamnolipid plate assay on M9-based agar with azithromycin gradient", "type": "cell-based", "details": "gradient from 0 μg/ml to 20 μg/ml in agar", "procedure": "P. aeruginosa strain PAO1 was grown on M9-based agar plates (Siegmund, I., Wagner, F., Biotechnol. Tech. 1991, 5, 265-268) into which a gradient of azithromycin from 0 μg/ml to 20 μg/ml was incorporated. The qualitative Rhamnolipid® plate assay was used."}, "C4-HSL": {"system": "C4-HSL", "assay": "Production of C4-HSL autoinducer, specific bioassay of ethyl acetate extracts of supernatants", "type": "cell-based, P. aeruginosa", "details": "2 μg/ml, LB medium, 12 hours, strain PAO1", "procedure": "as §1"}, "[3]": {"details": "in vivo; cited from earlier work"}, "[4]": {"system": "lasR, rhlR, lasI and rhlI genes", "assay": "lacZ reporter fusions of lasR, rhlR, lasI, rhlI, beta-Gal activity", "type": "cell-based, P. aeruginosa", "details": "2 μg/ml azithromycin, 10 h", "procedure": "Cultures of P. aeruginosa strain PAO1, harbouring the fusion gene of lasR′ with lacZ reporter (pPCS10011; Pesci, E. C., Pearson, J. P., Seed, P. C., Iglewski, B. H., J. Bacteriol. 1997, 179, 3127-3132), or the fusion gene of rhlR′ with lacZ (pPCS1002; ibid.), or the fusion gene of lasI′ with lacZ (pPCS223; Van Delden, C., Pesci, E. C., Pearson, J. P., Iglewski, B. H., Infect. Immun. 1998, 66, 4499-4502), or the fusion gene of rhlI′ with lacZ (pLPRI; ibid.) were grown for 10 h in broth medium either in the absence or presence of 2 μg/ml azithromycin and the β-Gal activity was then determined. The results for lasR and rhlR are shown in FIG. 2a) and for lasI and rhlI in FIG. 2b) (plotted bars are the mean ±SD of 6 individual experiments each)."}, "[5]": {"system": "P. aeruginosa strain PAO1", "assay": "Growth curves (optical density at 660 nm) in the elastase production experiment", "type": "cell-based", "details": "2 μg/ml, broth medium, 16 hours", "procedure": "P. aeruginosa strain PAO1 was grown over a total of 16 hours in broth medium either without azithromycin or with 2 μg/ml azithromycin. Samples of the supernatants of both cultures were taken in intervals of 4 hours and the activity of elastase in the samples was determined using elastin Congo red assays (Pearson, J. P., Pesci, E. C., Iglewski, B. H., J. Bacteriol. 1997, 179, 5756-5767). The measured elastase activity was plotted against the sampling times, giving FIG. 1b)."}, "P. aeruginosa strains": {"system": "P. aeruginosa strains", "details": "clinical trials; cited from earlier work"}, "C4-HSL autoinducer": {"system": "C4-HSL autoinducer", "details": "50 μg of erythromycin/ml; cited from earlier work"}, "[6]": {"details": "2 μg of azithromycin/ml, LB medium, strain PAO1"}},
  "data": [
    {"smiles": "CC[C@H]1OC(=O)[C@H](C)[C@@H](O[C@H]2C[C@@](C)(OC)[C@@H](O)[C@H](C)O2)[C@H](C)[C@@H](O[C@@H]2O[C@H](C)C[C@H](N(C)C)[C@H]2O)[C@](C)(O)C[C@@H](C)CN(C)[C@H](C)[C@@H](O)[C@]1(C)O", "note": "[azithromycin]", "values": [
      {"measurement": "influence on the growth (optical density at 660 nm)", "setting": "rhlAB operon", "value": "no significant influence"},
      {"measurement": "reduction of 3-oxo-C12-HSL concentration", "setting": "3-oxo-C12-HSL", "value": 94, "unit": "%"},
      {"measurement": "effect on exponential growth", "setting": "[1]; [6]", "value": "slightly affected"},
      {"measurement": "effect on the stationary growth phase", "setting": "[1]; [6]", "value": "no effect"},
      {"measurement": "inhibition of PAO1", "setting": "[1]; in vitro concentration 2 μg/ml", "value": "does not inhibit PAO1"},
      {"measurement": "growth on rhamnolipid plates", "setting": "[2]", "value": "without a parallel drop in growth"},
      {"measurement": "production of rhamnolipids", "setting": "[2]", "value": "progressively decreased"},
      {"measurement": "reduction of C4-HSL concentration", "setting": "C4-HSL", "value": 72, "unit": "%"},
      {"measurement": "distribution between body tissues and serum/plasma", "setting": "[3]", "value": "tends to accumulate in body tissues"},
      {"measurement": "restoration of lasI expression by co-addition of exogenous autoinducers", "setting": "[4]; 10 μM exogenous autoinducers", "value": "could not restore"},
      {"measurement": "effect on lasR and rhlR expression on co-adding exogenous 3-oxo-C12-HSL and C4-HSL", "setting": "[4]; autoinducers 10 μM each", "value": "almost completely compensated"},
      {"measurement": "influence on the growth (optical density at 660 nm)", "setting": "[5]", "value": "no significant influence"}
    ]},
    {"smiles": "CC[C@H]1OC(=O)[C@H](C)[C@@H](O[C@H]2C[C@@](C)(OC)[C@@H](O)[C@H](C)O2)[C@H](C)[C@@H](O[C@@H]2O[C@H](C)C[C@H](N(C)C)[C@H]2O)[C@](C)(OC)C[C@@H](C)C(=O)[C@H](C)[C@@H](O)[C@]1(C)O", "note": "[clarithromycin]", "values": [
      {"measurement": "effect on the viability of the microorganism", "setting": "P. aeruginosa strains", "value": "no effect"}
    ]},
    {"smiles": "CC[C@H]1OC(=O)[C@H](C)[C@@H](O[C@H]2C[C@@](C)(OC)[C@@H](O)[C@H](C)O2)[C@H](C)[C@@H](O[C@@H]2O[C@H](C)C[C@H](N(C)C)[C@H]2O)[C@](C)(O)C[C@@H](C)C(=O)[C@H](C)[C@@H](O)[C@]1(C)O", "note": "[erythromycin]", "values": [
      {"measurement": "autoinducer production", "setting": "C4-HSL autoinducer", "value": "reduction"}
    ]}
  ]
}
